In patent publication US20010025045A1, “Substituted isoquinoline derivatives and their use as anticonvulsants” (SmithKline Beecham p.l.c., priority 1997, published 2001):

tested on: maximal (tonic hindlimb extension) electroshock seizures in male rats (Sprague Dawley); experiment: Rat MEST (maximal electroshock seizure threshold) test; format: in vivo; conditions: 2 mg/kg p.o., suspension in methyl cellulose, one hour post dosing, statistically significant
Experimental: The maximal electroshock seizure (MEST) threshold test in rodents is particularly sensitive for detecting potential anticonvulsant properties ^1. In this model, anticonvulsant agents elevate the threshold to electrically-induced seizures whilst proconvulsants lower the seizure threshold.
The threshold for maximal (tonic hindlimb extension) electroshock seizures in male rats (Sprague Dawley, 80-150 g, 6 weeks old) was determined by a Hugo Sachs Electronik stimulator which delivered a constant current (0.3 sec duration; from 1-300mA in steps of 5-20mA). The procedure is similar to that outlined above for mouse and full details are as published by Upton et al.^4
The percentage increase or decrease in CC50 for each group compared to the control is calculated.
Drugs are suspended in 1% methyl cellulose.

Compound | increase in seizure threshold [%]
COc1cc(C(C)C)c(C#N)cc1C(=O)Nc1cccc2c1CCN(C)C2.Cl [Example 10, N-(2-Methyl-1,2,3,4-tetrahydroisoquinolin-5-yl)-5-cyano-2-methoxy-4-iso-propylbenzamide, hydrochloride] | 152
CCOc1cc(C(C)C)c(C(F)(F)F)cc1C(=O)Nc1cccc2c1CCN(C)C2 [Example 11, N-(2-Methyl-1,2,3,4-tetrahydroisoquinolin-5-yl)-2-ethoxy-4-iso-propyl-5-trifluoromethylbenzamide] | 92
CCOc1cc(C(C)C)c(C#N)cc1C(=O)Nc1cccc2c1CCN(C)C2.Cl [Example 16, N-(2-Methyl-1,2,3,4-tetrahydroisoquinolin-5-yl)-5-cyano-2-ethoxy-4-iso-propylbenzamide, hydrochloride] | 336
COc1cc(OC)c(C(=O)Nc2cccc3c2CCN(C)C3)cc1C#N.Cl [Example 23, N-(2-Methyl-1,2,3,4-tetrahydroisoquinolin-5-yl)-2,4-dimethoxy-5-cyanobenzamide, hydrochloride] | 107
CCOc1cc(OC)c(C(=O)Nc2cccc3c2CCN(C)C3)cc1Br [Example 17, N-(2-Methyl-1,2,3,4-tetrahydroisoquinolin-5-yl)-5-bromo-4-ethoxy-2-methoxybenzamide] | 403
